{"source": "patent US20250092383A1", "about": "“COMPOUNDS AND METHODS FOR FBXO22-MEDIATED PROTEIN DEGRADATION” (Northwestern University, priority 2023, published 2025)", "key": {"FKBP12 [1]": {"molecular_target": "T1, FKBP12 (Homo sapiens, UniProt P62942)", "T1 sequence (P62942 whole entry)": "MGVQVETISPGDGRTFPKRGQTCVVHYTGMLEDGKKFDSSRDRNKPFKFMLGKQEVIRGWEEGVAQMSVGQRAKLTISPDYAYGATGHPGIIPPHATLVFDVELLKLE", "experiment": "Degradation of endogenous FKBP12 in cancer cell lines, wild type vs FBXO22 knockout", "assay_type": "cell-based", "protocol": "The bar graph represents quantification of the FLAG-FKBP12/HSP90 protein content. Data are presented as the mean values±s.e.m. […] HEK293T cells expressing HA-FBXO22 were treated with 0.025-15 μM 22-SLF for 8 h. The graph represents quantification of the FLAG-FKBP12/HSP90 protein content. Data are presented as the mean values (n=2 biological independent samples). […] The bar graph represents quantification of the FLAG-FKBP12/HSP90 protein content. KO, knockout; WT, wild type. Data are presented as the mean values (n=2 biological independent samples). […] The bar graph represents quantification of the FLAG-FKBP12/HSP90 protein content. Data are presented as the mean values±s.e.m. […] The result is representative of two independent experiments with similar results. WCL, whole-cell lysate; IP, immunoprecipitate.\nData is obtained from Gene Expression Profiling Interactive Analysis (GEPIA). […] KDM4A and KDM4B are two reported substrates of FBXO22.\nAs an F-box protein, FBXO22 is a pivotal player in the context of tumor progression. FBXO22 has many oncogenic functions, including propelling the ubiquitination and subsequent degradation of a diverse spectrum of substrates, such as histone lysine demethylase 4 subfamily KDM4A/B, methylated p53, p21, PTEN, KLF4, and LKB1. […]"}, "CUTA": {"molecular_target": "T2, CUTA (Homo sapiens, UniProt O60888)", "T2 construct": "endogenous in cells; host or cells: A549 parental and FBXO22 knockout", "T2 sequence (O60888 33-179)": "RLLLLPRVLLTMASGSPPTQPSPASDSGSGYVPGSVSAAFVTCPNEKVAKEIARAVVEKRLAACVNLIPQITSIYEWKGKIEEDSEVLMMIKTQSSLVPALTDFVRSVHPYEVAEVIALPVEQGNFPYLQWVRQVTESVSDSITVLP", "experiment": "MS-based global proteomic analysis in A549 parental and FBXO22 knockout cells (CUTA)", "assay_type": "cell-based", "settings": "2 μM, 24 hours", "from_the_text": "As an F-box protein, FBXO22 is a pivotal player in the context of tumor progression. FBXO22 has many oncogenic functions, including propelling the ubiquitination and subsequent degradation of a diverse spectrum of substrates, such as histone lysine demethylase 4 subfamily KDM4A/B, methylated p53, p21, PTEN, KLF4, and LKB1. […] To establish the role of endogenous FBXO22 in facilitating 22-SLF-induced FKBP12 degradation, FBXO22 knockout was used in a panel of cancer cell lines, including A549 (lung cancer), MDA-MB-231 (breast cancer), and PC3 (prostate cancer). The efficacy of FBXO22 knockout was verified through both genomic PCR and global proteomic analysis (FIG. 8b,c). […] Furthermore, mass spectrometry (MS)-based global proteomic analysis was conducted on A549 parental and FBXO22 knockout cells, following the treatment with 2 μM 22-SLF for 24 hours. […] To further substantiate the engagement of FBXO22 by the electrophilic portion of 22-SLF, a biotin-conjugated probe known as 22-biotin (FIG. 2f) was synthesized. This probe was then immobilized onto streptavidin-coated beads, which were subsequently subjected to interaction with lysates from HEK293T cells expressing HA-tagged FBXO22."}, "FBXO22": {"molecular_target": "T3, FBXO22 (Homo sapiens, UniProt Q8NEZ5)", "T3 construct": "expressed in transfected cells; host or cells: HEK293T", "T3 sequence (Q8NEZ5 1-403)": "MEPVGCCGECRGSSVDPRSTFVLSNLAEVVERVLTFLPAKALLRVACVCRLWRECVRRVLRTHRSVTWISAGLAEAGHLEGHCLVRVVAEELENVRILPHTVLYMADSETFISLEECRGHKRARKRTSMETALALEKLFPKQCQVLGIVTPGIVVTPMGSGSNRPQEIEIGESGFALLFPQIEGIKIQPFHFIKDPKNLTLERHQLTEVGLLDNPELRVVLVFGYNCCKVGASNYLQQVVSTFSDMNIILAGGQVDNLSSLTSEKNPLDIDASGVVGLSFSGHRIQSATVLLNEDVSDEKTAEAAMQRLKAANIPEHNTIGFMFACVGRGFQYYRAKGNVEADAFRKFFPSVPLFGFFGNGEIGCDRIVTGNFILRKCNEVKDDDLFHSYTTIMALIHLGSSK", "experiment": "Competitive cysteine-directed activity-based protein profiling (ABPP)", "assay_type": "binding", "from_the_text": "(§1) FIGS. 3A-3H show FBXO22 C227 and C228 are involved in 22-SLF-mediated degradation of FKBP12. […] Among 5,650 quantified IA-DTB-modified peptides, four cysteines were identified on FBXO22 (C83, C117, C228, and C365). […] Data are presented as the mean values (n=2 biological independent samples for DMSO treatment; n=3 biological independent samples for 22-SLF Treatment). […] The bag graph represents quantification of the FLAG-FKBP12/HSP90 protein content. Data are presented as mean values (n=2 biological independent samples). […] The bar graph represents quantification of the FLAG-FKBP12/HSP90 protein content. Data are presented as the mean values (n=2 biological independent samples).\nTo identify the cysteine residue(s) in FBXO22 engaged with 22-SLF, HA-FBXO22-expressing HEK293T cells were treated with either DMSO or 22-SLF (2 μM, 2 hours). Using competitive cysteine-directed activity-based protein profiling (ABPP), a chemical proteomics for the measurement of target engagement, the degree of blockade of iodoacetamide-desthiobiotin (IA-DTB)-modified cysteines on FBXO22 was quantified. From a pool of 5,650 quantified IA-DTB-modified peptides, four cysteines on FBXO22 (C83, C117, C228, and C365) (FIG. 3a) were identified, with approximately 20% of FBXO22 C228 being blocked by 22-SLF treatment (FIG. 3b), indicating the potential interaction with this cysteine by 22-SLF. […]"}, "FKBP12 [2]": {"molecular_target": "T1, FKBP12", "experiment": "Global proteomic analysis in HEK293T cells expressing FBXO22 wildtype or C227AC228A", "assay_type": "cell-based", "set-up": "expressed in transfected cells; host or cells: HEK293T", "settings": "0.5 μM, 24 hours", "from_the_text": "as §1\nFIGS. 9A-9B show FBXO22 C227 and C228 are involved in 22-SLF-mediated degradation of FKBP12.\nGlobal proteomic analysis in FBXO22 wildtype- and C227AC228A-expressing HEK293T cells was conducted, comparing the effects of 22-SLF treatment on the expression level of FKBP12. […] Using this predicted human FBXO22 structure, a model structure of the interaction with the electrophilic portion of 22-SLF was conducted."}}}
{"smiles": "CCC(C)(C)C(=O)C(=O)N1CCCC[C@H]1C(=O)O[C@H](CCc1ccc(OC)c(OC)c1)c1cccc(OCC(=O)NCCCOCCOCCOCCCN(C(=O)CCl)C(C(=O)NCc2ccccc2)c2nc3ccccc3s2)c1", "note": "(stereo partly shown) [22-SLF]", "values": [{"measurement": "Degradation of endogenous FKBP12, wild-type cells", "setting": "FKBP12 [1]; A549, MDA-MB-231 and PC3, 2 μM in A549", "result": "promoted degradation of endogenous FKBP12"}, {"measurement": "Degradation of endogenous FKBP12, FBXO22 knockout cells", "setting": "FKBP12 [1]; A549, MDA-MB-231 and PC3 FBXO22 knockout", "result": "abolished upon FBXO22 knockout"}, {"measurement": "CUTA protein reduction in global proteomics", "setting": "CUTA", "result": "observed to undergo reduction upon 22-SLF treatment in A549 parental cells, but not in the FBXO22 knockout setting"}, {"measurement": "Blockade of IA-DTB-modified FBXO22 C228", "setting": "FBXO22; 2 μM, 2 hours, HA-FBXO22-expressing HEK293T cells", "result": "approximately 20%"}, {"measurement": "Engagement of FBXO22 C227", "setting": "FBXO22; FIG. 3b", "result": "approximately 20%"}, {"measurement": "FKBP12 degradation in global proteomics, FBXO22 C227AC228A cells", "setting": "FKBP12 [2]; HEK293T HA-FBXO22 C227AC228A", "result": "no degradation observed"}, {"measurement": "Proteins degraded among 7,936 quantified proteins, FBXO22 wildtype cells", "setting": "FKBP12 [2]; HEK293T HA-FBXO22 wildtype", "result": "FKBP12 was the only protein degraded"}]}
